The values below come from patent publication US10588910B2, “Pharmaceutical composition comprising epidithiodioxopiperazine compound or derivative thereof, or pharmaceutically acceptable salt thereof, for preventing or treating pulmonary hypertension” (priority 2016, dated 2020).

The test deals with rat models in which pulmonary arterial hypertension is induced by monocrotaline (MCT). Nature of the test: Monocrotaline-induced pulmonary arterial hypertension rat model: heart mass, RV/(LV+septum) ratio, pulmonary arterial wall thickness (H&E). In kind it is in vivo, Male SD rats. To be noted: for hypertrophy of the right ventricle and pulmonary artery intimal thickening: animals with pulmonary arterial hypertension induced by monocrotaline; for hypertrophy of the right ventricle and pulmonary artery intimal thickening / therapeutic effect on pulmonary arterial hypertension: summary statement; for Total mass (heart) / LV + Septum (mass), Average / RV (right ventricle mass), Average / RV/LV + Septum, Average / Total mass (heart), Average / LV + Septum (mass) / RV (right ventricle mass) / RV/LV + Septum: 3 weeks; for Total mass (heart) / LV + Septum (mass) / RV (right ventricle mass) / RV/LV + Septum: individual rats; for LV + Septum (mass), Average / RV (right ventricle mass), Average / RV/LV + Septum, Average / Total mass (heart), Average: group average. As for the experimental part:
Male SD rats weighing approximately 210 g were used as animal models. In order to induce pulmonary arterial hypertension, a single intraperitoneal injection of monocrotaline (MCT) at a dose of 60 mg/kg was carried out. Accordingly, the rat models in which pulmonary arterial hypertension is induced were maintained for 3 weeks while test drugs were administered or not administered, and then the rat models were sacrificed. Thereafter, the hearts were excised and analyzed.
Chaetocin (the compound of Formula 2), which is a representative epidithiodioxopiperazine compound, was administered as a test drug to the pulmonary arterial hypertension animal models prepared according to Preparation Example 1 above at each dose of 6 μg, 12 μg, and 30 μg every 3 days. Normal rats in which MCT is not administered were used as the control group; and rats in which pulmonary arterial hypertension is induced by administering only MCT were used as the MCT group. The control group and each experimental group consisted of 3 to 4 rats.
The hearts were excised as in Preparation Example 1, and the excised hearts were measured for their total mass. Thereafter, the right ventricle (RV) was separated and the masses of each of the right ventricle, left ventricle, and cardiac septum (LV+septum) were separately measured to calculate the ratio. The results of the measurement of each experimental animal, the normal rats (control group), the MCT group, and the experimental groups (chaetocin groups; MCT+(dose μg)) in which chaetocin is administered at each dose of 30 μg, 12 μg, and 6 μg are shown in order in Tables 1 to 5.
Further, the sizes of the excised entire hearts and separated right ventricles were visually observed (FIG. 1), and the thicknesses of the pulmonary arterial walls were measured by H&E staining (FIGS. 2 to 11). In addition, in order to visualize the difference in the heart and pulmonary artery according to the dose-dependent chaetocin administration after the pulmonary arterial hypertension induction in the pulmonary arterial hypertension model, the average values of the heart mass, the ratio of the right ventricle to the left ventricle, and the thickness of the pulmonary artery wall, which are calculated from the hearts excised from each animal model, are shown in FIGS. 12 to 14, respectively. […]

The mark [1] stands for this setting: MCT rats, chaetocin 6 μg every 3 days.
The mark [2] stands for this setting: MCT rats, chaetocin 12 μg every 3 days.
Setting [3] is: MCT rats, chaetocin 30 μg every 3 days.

SMILES strings stand for the structures. Values joined by “and” are separate entries in the source; they are usually repeats but may differ in a detail not shown here. Equal values may be shown once.

For the molecule `CN1C(=O)C2SSC1C(=O)N2C` [5,7-Dimethyl-2,3-dithia-5,7-diazabicyclo[2.2.2]octane-6,8-dione], the “hypertrophy of the right ventricle and pulmonary artery intimal thickening” value is recorded as “reduced to a level similar to normal”; the “therapeutic effect on pulmonary arterial hypertension” value is “excellent therapeutic effect”.
With `CN1C(=O)C23CC4(C56CC78SSC(CO)(C(=O)N7C5Nc5ccccc56)N(C)C8=O)c5ccccc5NC4N2C(=O)C1(CO)SS3` (stereo not shown) [chaetocin], the “hypertrophy of the right ventricle and pulmonary artery intimal thickening” value is given as “reduced to a level similar to normal”; the “therapeutic effect on pulmonary arterial hypertension” value is given as “excellent therapeutic effect”. Besides, the “Total mass (heart)” value (MCT 60 mg/kg i.p. rats, chaetocin 30 μg every 3 days) was 1185 mg and 865 mg and 1135 mg and 1258 mg. Also, under setting [1], the “LV + Septum (mass), Average” value is given as 718.3 mg; the “RV (right ventricle mass), Average” value came to 190.0 mg; the “RV/LV + Septum, Average” value came to 0.26; the “Total mass (heart), Average” value is 908.3 mg. Further, under setting [1], the “LV + Septum (mass)” value is 732 mg and 681 mg and 742 mg; the “RV (right ventricle mass)” value is 190 mg and 175 mg and 205 mg; the “RV/LV + Septum” value is 0.26 (2×) and 0.28; the “Total mass (heart)” value was 922 mg and 856 mg and 947 mg. Under setting [2], the “LV + Septum (mass), Average” value stood at 935.7 mg; the “RV (right ventricle mass), Average” value came out at 259.0 mg; the “RV/LV + Septum, Average” value is reported as 0.28; the “Total mass (heart), Average” value is on record as 1194.7 mg. Under setting [2], the “LV + Septum (mass)” value is 913 mg and 968 mg and 926 mg; the “RV (right ventricle mass)” value was 261 mg and 295 mg and 221 mg; the “RV/LV + Septum” value is 0.29 and 0.30 and 0.24; the “Total mass (heart)” value is 1174 mg and 1263 mg and 1147 mg. Also, under setting [3], the “LV + Septum (mass), Average” value stood at 870.8 mg; the “RV (right ventricle mass), Average” value came out at 240.0 mg; the “RV/LV + Septum, Average” value was 0.3; the “Total mass (heart), Average” value was found to be 1110.8 mg. Also, under setting [3], the “LV + Septum (mass)” value was 921 mg and 689 mg and 874 mg and 999 mg; the “RV (right ventricle mass)” value is 264 mg and 176 mg and 261 mg and 259 mg; the “RV/LV + Septum” value is 0.29 and 0.26 (2×) and 0.30.
